Converted amounts (≈) assume the structure as drawn.
Tests used:
Escherichia coli = test: Effect on the intestinal bacterial colonies: Escherichia coli in feces; format: in vivo; settings: mice; for Logarithmic value of the number of bacterial cells per one g of feces, E. coli: oral 500 mg/kg/day for two consecutive days, feces one day after administration
Description: (§1) Each of the cephalosporin derivatives of the invention prepared in Examples 1 to 10 was orally administered to mice (one group consisting of five female ICR mice of 6-week-old) for two consecutive days at a dose of 500 mg/kg/day.
(§2) Before and one day after the administration, feces of each mouse were collected and diluted with an anaerobic diluent (phosphoric buffer solution) of 100 times volume and the diluted feces were ground. 0.1 ml of the diluted and ground feces was smeared on each culture medium shown in Table 1 and cultured aerobically or anaerobically (according to the anaerobic glove box method) under each condition shown in Table 1 and the number of each bacterium shown in Table 1 was counted.
DHL agar aerobic, 37° C.,

Pseudomonas aeruginosa = test: Effect on the intestinal bacterial colonies: Pseudomonas aeruginosa in feces; format: in vivo; settings: mice, oral 500 mg/kg/day for two consecutive days, feces one day after administration
Description: as §1, §2
NAC agar aerobic, 37° C.,

Streptococcus spp. = test: Effect on the intestinal bacterial colonies: Streptococcus spp. in feces; format: in vivo; settings: mice, oral 500 mg/kg/day for two consecutive days, feces one day after administration
Description: as §1, §2
TATAC agar aerobic, 37° C.,

[1] = tested on: Lactobacillus acidophilus; test: Effect on the intestinal bacterial colonies: Lactobacillus acidophilus in feces; format: in vivo; settings: mice; for Logarithmic value of the number of bacterial cells per one g of feces, L. acidophilus: oral 500 mg/kg/day for two consecutive days, feces one day after administration
Description: as §1, §2
Lactobacillus acidophilus
LBS agar anaerobic, 37° C.,

Lactobacillus bifidus = test: Effect on the intestinal bacterial colonies: Lactobacillus bifidus in feces; format: in vivo; settings: mice, oral 500 mg/kg/day for two consecutive days, feces one day after administration
Description: as §1, §2
BS agar anaerobic, 37° C.,

Bacteroides = test: Effect on the intestinal bacterial colonies: Bacteroides in feces; format: in vivo; settings: mice, oral 500 mg/kg/day for two consecutive days, feces one day after administration
Description: as §1, §2
Bacteroides NBGT agar anaerobic, 37° C.,

[2] = tested on: Escherichia coli IFO 12734; test: Antibacterial activity (MIC, agar plate) against E. coli; format: cell-based; settings: Escherichia coli IFO 12734, Mueller-Hinton agar, 37° C., 18 to 24 hours; unit assumed
Description: (§3) Antibacterial activity of each of the cephalosporin derivatives of the invention prepared in Examples 1 to 10 was examined against the following two bacteria according to the standard method of Japan Society of Chemitherapy: Escherichia coli IFO 12734 and Staphylococcus aureus IAM 1011.
(§4) Each bacterial strain was inoculated into the Mueller-Hinton's culture medium and cultured at 37° C. for 18 to 48 hours. The cultured medium was diluted so as to contain 1×10^6 cells of the bacteria per one ml, and the obtained medium was used as the bacterial specimen.
(§5) Agar plates were prepared by adding one part by weight of each solution of the cephalosporin derivative of the invention at a predetermined concentration to nine parts by weight of Mueller-Hinton's culture medium.
(§6) A loopful amount of the bacterial specimen prepared above was smeared to make a streak of about 2 cm on each agar plate prepared above and cultured at 37° C. for 18 to 24 hours.
(§7) The minimum concentration for completely inhibiting proliferation of the bacteria (referred to as MIC) was determined.

[3] = tested on: Staphylococcus aureus IAM 1011; test: Antibacterial activity (MIC, agar plate) against Staph. aureus; format: cell-based; settings: Staphylococcus aureus IAM 1011, Mueller-Hinton agar, 37° C., 18 to 24 hours; unit assumed
Description: as §3, §4, §5, §6, §7

[4] = tested on: Staphylococcus aureus IAM 1011; test: Activation by rat liver homogenate (S-9 mix), proliferation-inhibiting circle, penicillin cup method; format: cell-based; settings: incubated with rat liver S-9 mix, 37° C. 20 min; circle diameter relative to the starting compound
Description: As an activating enzyme of metabolism, a rat liver homogenate (S-9, manufactured by Oriental Yeast Company, Japan) was used in the following composition per 1 ml (hereinafter referred to as S-9 mix). 0.1 ml of the solution of each of the cephalosporin derivatives of the invention prepared in Examples 1 to 10 at a concentration of 100 μg/ml was mixed with 0.9 ml of S-9 mix or 0.9 ml of 0.1 M phosphoric buffer solution (as a control) and the obtained mixture was incubated at 37° C. for 20 min. with shaking. Staphylococcus aureus IAM 1011 was inoculated into a Mueller-Hinton's culture medium and cultured at 37° C. for 18 hours. The culture medium was adjusted to a cell concentration of 1×10^8 per 1 ml and mixed with 50 times by volume of Mueller-Hinton's agar culture medium to obtain an agar plate. A penicillin cup of 8 mm in diameter was placed on the agar plate prepared above, and into the cup 0.1 ml of the mixture containing the cephalosporin derivative prepared above was introduced and allowed to stand at 4° C. for 2 hours, and then cultured at 37° C. for 18 hours to measure the diameter of a circle in which the proliferation of bacteria was inhibited (proliferation-inhibiting circle). In Table 4, the proliferation-inhibiting index is shown in the ratio (%) of the diameter of the proliferation-inhibiting circle obtained by using each of the cephalosporin derivatives of the invention to that obtained by using each of the starting compound in preparing each of the cephalosporin derivatives of the invention.

[5] = oral 500 mg/kg/day for two days, feces

| MIC E. coli [2] | MIC Staph. aureus [3] | SMILES | Logarithmic value of the number of bacterial cells per one g of feces, E. coli (Escherichia coli) | change in the number of Escherichia coli as compared to that before administration (Escherichia coli; [5]) | Logarithmic value of the number of bacterial cells per one g of feces, Ps. aeruginosa (Pseudomonas aeruginosa) | Logarithmic value of the number of bacterial cells per one g of feces, Strept. spp. (Streptococcus spp.) | Logarithmic value of the number of bacterial cells per one g of feces, L. acidophilus [1] | change in the number of Lactobacillus acidophilus [1, 5] | Logarithmic value of the number of bacterial cells per one g of feces, L. bifidus (Lactobacillus bifidus) | Logarithmic value of the number of bacterial cells per one g of feces, Bacteroides (Bacteroides) | Proliferation-inhibiting index (%) After adding S-9 mix [4] |
| --- | --- | --- | --- | --- | --- | --- | --- | --- | --- | --- | --- |
| ≥ 100 µg/mL | ≥ 12.5 µg/mL | CC(=O)OCC1=C(C(=O)Nc2ccc(O)cc2)N2C(=O)C(NC(=O)Cc3cccs3)C2SC1 (centres unmarked) [Example 1, N-(4-hydroxyphenyl)-7-(thienyl-2-acetamido)cephalosporanic acid amide] | 6.5 |  | < 3.0 | 6.3 | 8.9 |  | 8.2 | 8.7 | +++ (66-100) |
| ≥ 25 µg/mL | 0.2 µg/mL (≈ 0.378 µM) | COC(=O)c1ccc(NC(=O)C2=C(COC(C)=O)CSC3C(NC(=O)Cc4cccs4)C(=O)N23)cc1 (centres unmarked) [Example 2, N-(4-carbomethoxyphenyl)-7-(thienyl-2-acetamido)cephalosporanic acid amide] | 6.4 |  | < 3.0 | 6.7 | 9.1 |  | 8.6 | 8.1 | ++ (33-66) |
| ≥ 100 µg/mL | 1.56 µg/mL (≈ 2.95 µM) | CC(=O)OCC1=C(C(=O)Nc2ccc(CC(=O)O)cc2)N2C(=O)C(NC(=O)Cc3cccs3)C2SC1 (centres unmarked) [Example 5, N-(4-carboxymethylphenyl)-7-(thienyl-2-acetamido)cephalosporanic acid amide] | 6.5 |  | < 3.0 | 6.8 | 9.1 |  | 8.4 | 8.2 | +++ (66-100) |

The remaining lines, values behind:

| SMILES | MIC E. coli [2] | MIC Staph. aureus [3] | Logarithmic value of the number of bacterial cells per one g of feces, E. coli (Escherichia coli) | change in the number of Escherichia coli as compared to that before administration (Escherichia coli; [5]) | Logarithmic value of the number of bacterial cells per one g of feces, Ps. aeruginosa (Pseudomonas aeruginosa) | Logarithmic value of the number of bacterial cells per one g of feces, Strept. spp. (Streptococcus spp.) | Logarithmic value of the number of bacterial cells per one g of feces, L. acidophilus [1] | change in the number of Lactobacillus acidophilus [1, 5] | Logarithmic value of the number of bacterial cells per one g of feces, L. bifidus (Lactobacillus bifidus) | Logarithmic value of the number of bacterial cells per one g of feces, Bacteroides (Bacteroides) | Proliferation-inhibiting index (%) After adding S-9 mix [4] |
| --- | --- | --- | --- | --- | --- | --- | --- | --- | --- | --- | --- |
| CC(=O)OCC1=C(C(=O)O)N2C(=O)[C@@H](NC(=O)Cc3cccs3)[C@H]2SC1 [Cephalotin, cephalotin, reference compound] |  |  | 9.9 | increased | < 3.0 | 9.0 | 4.1 | decreased | 9.2 | 7.2 |  |
| CCOC(=O)c1ccc(NC(=O)C2=C(COC(C)=O)CSC3C(NC(=O)Cc4cccs4)C(=O)N23)cc1 (centres unmarked) [Example 3, N-(4-carboethoxyphenyl)-7-(thienyl-2-acetamido)cephalosporanic acid amide] | ≥ 100 µg/mL | ≥ 12.5 µg/mL | 6.5 |  | < 3.0 | 6.5 | 9.0 |  | 8.3 | 8.1 | ++ (33-66) |
| CCCCOC(=O)c1ccc(NC(=O)C2=C(COC(C)=O)CSC3C(NC(=O)Cc4cccs4)C(=O)N23)cc1 (centres unmarked) [Example 4, N-(4-carbo-n-butoxyphenyl)-7-(thienyl-2-acetamido)cephalosporanic acid amide] | ≥ 100 µg/mL | ≥ 12.5 µg/mL | 6.4 |  | < 3.0 | 6.7 | 9.1 |  | 8.5 | 8.1 | ++ (33-66) |
| COC(=O)Cc1ccc(NC(=O)C2=C(COC(C)=O)CSC3C(NC(=O)Cc4cccs4)C(=O)N23)cc1 (centres unmarked) [Example 6, N-(4-carbomethoxymethylphenyl)-7-(thienyl-2-acetamido)cephalosporanic acid amide] | ≥ 100 µg/mL | ≥ 12.5 µg/mL | 6.8 |  | < 3.0 | 6.5 | 8.9 |  | 8.3 | 8.8 | +++ (66-100) |
| CCOC(=O)Cc1ccc(NC(=O)C2=C(COC(C)=O)CSC3C(NC(=O)Cc4cccs4)C(=O)N23)cc1 (centres unmarked) [Example 7, N-(4-carboethoxymethylphenyl)-7-(thienyl-2-acetamido)cephalosporanic acid amide] | ≥ 100 µg/mL | 6.25 µg/mL (≈ 11.2 µM) | 6.4 |  | < 3.0 | 6.6 | 8.9 |  | 8.3 | 8.8 | +++ (66-100) |
| CC(=O)OCC1=C(C(=O)Nc2ccc(C(=O)NCC(=O)O)cc2)N2C(=O)C(NC(=O)Cc3cccs3)C2SC1 (centres unmarked) [Example 8, N-(4-carboxymethylcarbamoylphenyl)-7-(thienyl-2-acetamido)cephalosporanic acid amide] | ≥ 100 µg/mL | 12.5 µg/mL (≈ 21.8 µM) | 6.4 |  | < 3.0 | 6.8 | 9.1 |  | 8.5 | 8.1 | ++ (33-66) |
| COC(=O)CNC(=O)c1ccc(NC(=O)C2=C(COC(C)=O)CSC3C(NC(=O)Cc4cccs4)C(=O)N23)cc1 (centres unmarked) [Example 9, N-(4-carbomethoxymethylcarbamoylphenyl)-7-(thienyl-2-acetamido)cephalosporanic acid amide] | ≥ 100 µg/mL | ≥ 12.5 µg/mL | 6.5 |  | < 3.0 | 7.1 | 9.3 |  | 8.6 | 8.1 | +++ (66-100) |

— patent US4439434A, “Cephalosporin derivative and pharmaceutical composition containing the derivative” (Kureha Kagaku Kogyo Kabushiki Kaisha, priority 1981, dated 1984)
